Data set [1] has as its system phosphorylated AKT. Put plainly: Western blot of AKT phosphorylation in mouse primary hepatocytes from wild-type or fxr-/- mice. Conditions: serum-starved mouse primary hepatocytes, 10 min. In general terms: Immunoblotting shows a protein as a band on a membrane.
Data set [2] relates to pAKT S473. Put plainly: Western blot of AKT phosphorylation in serum-starved HepG2 cells. Conditions: 10 min. The format is cell-based, human. As for the experimental part:
Cell extracts were used to separate proteins by SDS-PAGE, and Western blot analysis was performed using specific antibodies against phosphorylated AKT and phosphorylated GSK3beta. […] Extracts were analyzed by Western blot using specific antibodies against pAKT S473 (left panel) or pGSK3beta (right panel).
To further investigate the dose dependence of AKT phosphorylation, we treated HepG2 cells with increasing concentrations of 6EUDCA. Serum-starved HepG2 cell extracts were prepared after incubation with different concentrations of 6EUDCA (DMSO/0 M, 1 μM, 3 μM, 10 µM or 30 µM) for 10 min. Extracts were analyzed by Western blot using specific antibodies against pAKT S473 (left panel) or pGSK3beta (right panel).

Data set [3] concerns FXR target gene SHP. Put plainly: qPCR analysis of the FXR target gene SHP in HepG2 cells. Conditions: serum starved HepG2, overnight; 100 μM UDCA, 10 μM 6EUDCA; normalized with 36b4. The format is cell-based, human. (In qPCR the cycle at which signal appears reflects the starting amount.)
The target in data set [4] is T1, GST-hFXR (Homo sapiens, UniProt Q96RI1).
T1 sequence (Q96RI1 1-486): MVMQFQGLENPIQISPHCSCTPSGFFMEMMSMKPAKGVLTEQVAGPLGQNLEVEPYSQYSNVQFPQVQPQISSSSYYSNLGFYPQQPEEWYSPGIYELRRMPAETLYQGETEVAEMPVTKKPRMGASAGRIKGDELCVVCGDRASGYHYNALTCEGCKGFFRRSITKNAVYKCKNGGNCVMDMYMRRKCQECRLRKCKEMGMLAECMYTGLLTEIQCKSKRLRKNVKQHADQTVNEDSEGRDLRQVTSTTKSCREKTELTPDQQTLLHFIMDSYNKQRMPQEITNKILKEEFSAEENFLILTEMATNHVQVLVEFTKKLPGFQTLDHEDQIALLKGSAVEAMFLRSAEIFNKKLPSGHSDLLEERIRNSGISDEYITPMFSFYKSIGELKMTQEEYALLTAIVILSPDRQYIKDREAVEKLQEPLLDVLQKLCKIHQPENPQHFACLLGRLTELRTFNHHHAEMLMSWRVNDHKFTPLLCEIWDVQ
Conditions: UDCA 1000, 300 or 100 μM; 6EUDCA 100, 30 or 10 μM; 15 or 25 min.

As for `CC[C@H]1[C@H](O)[C@@H]2[C@H](CC[C@]3(C)[C@@H]([C@H](C)CCC(=O)O)CC[C@@H]23)[C@@]2(C)CC[C@@H](O)C[C@@H]12` [6EUDCA, 3α, 7β-Dihydroxy-6α-ethyl-5β-cholan-24-oic acid], in data set [1], the “phosphorylation of AKT in fxr-/- hepatocytes” value was “not in fxr−/− hepatocytes” and the “phosphorylation of AKT in wild-type hepatocytes” value was “induced phosphorylation of AKT in wild-type hepatocytes”. Also, in data set [2] (HepG2, 1 μM, 3 μM, 10 μM or 30 μM), the “dose dependence of AKT phosphorylation” value is recorded as “dose dependent”. Further, the “induction of AKT phosphorylation” value in data set [2] (serum starved HepG2 cells) is reported as “effective in inducing AKT phosphorylation”. The “induction of the FXR target gene SHP (qPCR)” value in data set [3] is reported as “neither UDCA nor 6EUDCA could induce the FXR target gene SHP”. Also, the “binding to FXR in TR-FRET assay (reduction in fluorescence signal of DY246)” value in data set [4] is “binds FXR with higher affinity”.

Take `C[C@H](CCC(=O)O)[C@H]1CC[C@H]2[C@@H]3[C@@H](O)C[C@@H]4C[C@H](O)CC[C@]4(C)[C@H]3CC[C@]12C` [UDCA, Ursodeoxycholic acid, reference compound]: in data set [1], the “phosphorylation of AKT in fxr-/- hepatocytes” value is “not in fxr−/− hepatocytes” and the “phosphorylation of AKT in wild-type hepatocytes” value was “induced phosphorylation of AKT in wild-type hepatocytes”.

For the origin of these results see patent publication US10246481B2, “Bile acid derivatives and methods for synthesis and use” (City of Hope, priority 2016, dated 2019).
